Results on five compounds are retold here after US20230071765A1, “COMPOSITIONS HAVING THIOREDOXIN ACTIVITY AND RELATED METHODS” (ORPRO THERAPEUTICS, INC., priority 2020, published 2023).

Data set [1] deals with primary HBE cells from CF donors homozygous for F508del. Put plainly: μOCT of MCT rate and CBF in CF primary HBE cells. The format is cell-based, human. The settings on record: 3 hrs post-treatment; ORP100S 1-3 mM, DTT 1.6 mM; PBS 7.30±2.9; mean±SE. From the text:
(§1) Primary human bronchial epithelial (HBE) cells were derived from lung explants from healthy failed donors and CF patients homozygous for F508del CFTR. […]
(§2) One-micron resolution spectral domain μOCT was used to obtain measurements of mucociliary transport (MCT) rate and ciliary beat frequency (CBF) in HBE monolayers and of MCT rate of sputum ex vivo. This first-in-kind, high-speed (40 frames per second, 512 lines per frame) microscopic reflectance imaging modality enables simultaneous anatomic imaging in cell cultures and intact tissues that readily distinguishes the properties of CF compared to normal epithelia (Liu L, Chu K K, Houser G H, Diephuis B J, Li Y, Wilsterman E J, Shastry S, Dierksen G, Birket S E, Mazur M, et al., 2013, Method for quantitative study of airway functional microanatomy using micro-optical coherence tomography, PLoS One 8(1):e54473; Tuggle K L, Birket S E, Cui X, Hong J, Warren J, Reid L, Chambers A, Ji D, Gamber K, Chu K K, et al., 2014, Characterization of defects in ion transport and tissue development in Cystic Fibrosis Transmembrane Conductance Regulator (CFTR)-knockout rats. […] Images were captured, and MCT rate and CBF calculated, as described in the preceding references.

The test system of data set [2] is CF patient sputum on wild type rat trachea. Put plainly: CF sputum transport ex vivo on excised rat trachea (μOCT). The settings on record: sputum treated 2 hrs; ORP100S 3 mM, DTT 1.6 mM, DNase 10 or 25 μg/ml; PBS 0.97±0.17. The arrangement: species or system human sputum. As to the method: To determine the effect of ORP100S on CF sputum transportability, sputum specimens spontaneously expectorated from 4 CF patients hospitalized for pulmonary exacerbation were collected and stored at 4° C. before being divided into 200 μL aliquots and treated with ORP100S (3 mM), PBS, DTT (1.6 mM), or DNase (10 or 25 μg/ml) on the day of or day following collection. Upon treatment, sputum aliquots were placed in a 37° C. water bath for 2 hrs and then applied (3 μl per sample) for μOCT imaging to the distal end of trachea excised from adult non-CF rats. Trachea were washed 2× with 500 μl of PBS before sputum addition. […]
One-micron resolution spectral domain μOCT was used to obtain measurements of mucociliary transport (MCT) rate and ciliary beat frequency (CBF) in HBE monolayers and of MCT rate of sputum ex vivo. […] Images were captured, and MCT rate and CBF calculated, as described in the preceding references.
The effect of ORP100S on mucus clearance using intact rat trachea, which include the complexities of the airway surface such as gland expression of a fully differentiated mucosal surface, was further evaluated. […] MCT was measured by projecting a cross-sectional line through the mucus through time, with the slope of the particle trajectories indicating velocity. […]

Data set [3] concerns primary HBE cells from healthy non-CF donors. The data set is described as follows: μOCT of MCT rate and CBF in non-CF primary HBE cells. The format is cell-based, human. Particulars: 3 hrs post-treatment; ORP100S 1-3 mM, DTT 1.6 mM; PBS 0.05±0.007; mean±SE.
Excerpt: as §1, §2

The next data set deals with mucins of 4% HBE mucus. The data set is described as follows: mucin molecular weight by GPC-MALLS. The format is biochemical, human. The settings on record: 1 mM, 1 hr at 37° C.; from 180 MDa. From the text:
Mucus Preparation: Aseptic mucus was harvested from over 100 individual HBE cultures from 20 different CF donors and prepared to four weight-percent (4%) solids, a concentration that typifies chronic obstructive pulmonary disease (COPD) and mild CF (Hill, D. B. et al., 2014, A biophysical basis for mucus solids concentration as a candidate biomarker for airways disease, PloS one 9, e87681; Anderson, W. H. et al., 2015, The relationship of mucus concentration (hydration) to mucus osmotic pressure and transport in chronic bronchitis., Am J Resp Crit Care Med 192: 182-90). […] Creep recovery experiments were performed in which a known stress (between 0.05 and ˜100 Pa) was applied to treated or control mucus for 10 seconds, and the rheological recovery of the fluid was recorded for an additional 50 seconds. […] From the measured parameters the viscosity and elasticity of the fluid were determined as a function of applied stress. […] Mucin molecular weight determination: Molecular weight reduction following test article treatment was determined using a combination of gel-permeation chromatography with multi-angle laser light scattering on a Wyatt Heleos MALLS system. […] Mucin MW was determined by fitting a Berry model to light scattering from 11 different angles using Wyatt Astra software. […]

For data set [4] the following is noted: thiol pKa; thioredoxin: active site Cys32; cited from earlier work.
A further data set deals with T1, human insulin (Homo sapiens, UniProt P01308).
T1 construct: The two chains of human insulin have a total of six Cys residues which form three disulfide bonds in its mature structure
T1 sequence (P01308 25-54 limits assumed): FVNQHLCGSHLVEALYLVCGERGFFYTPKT
T1 sequence (P01308 90-110 limits assumed): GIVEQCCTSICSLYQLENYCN
Put plainly: RP-HPLC insulin reduction assay (conversion of insulin heterodimer). The format is biochemical. As to the method:
Functional assays 1. Reduction state of ORP100S was quantified using DTNB which reacts with free SH groups resulting in a yellow color change at 412 nm. Fifty microliters of 2.5 mM rhTrx was added to a 96-well plate, followed by 175 microliters of sample buffer and 25 microliters of 6 mM DTNB. After reactions were initiated by the addition of DTNB, change in kinetic absorbance at 412 nm due to DTNB reduction was monitored spectrophotometrically at 30° C. ORP100S concentration was determined by A280 (Nanodrop) using the extinction coefficient of human Trx-1 (7,000). The actual concentrations of free sulfhydryl groups were calculated based on the absorbance at 412 nm and the extinction coefficient of DTNB (14,150) in order to determine the reduction state as percentage of free sulfhydryl. […] 2. Percent of free monomer ORP100S in solution was determined using SEC. Samples were analyzed on a BioBasic S-300 250×4.6 column (Thermo Scientific) run on an Agilent 1100 HPLC system. […] The flow rate was 0.35 mL/min and absorbance was monitored at 280 nm. […] The ORP100S monomer percentage was determined by integration of the area under the peak of the monomeric fraction divided by the total area under the curve of the chromatogram. […] Disulfide bond reduction activity of ORP100S was quantified by assaying the reduction state of a small protein (human insulin) which in its heterodimeric form contains two intermolecular and one intramolecular disulfide, all three of which are known to be suitable thioredoxin substrates. Insulin reduction has classically been used to quantify thioredoxin activity by absorbance change following addition of NADPH and TrxR (Holmgren A., 1979, Thioredoxin catalyzes the reduction of insulin disulfides by dithiothreitol and dihydrolipoamide, J Biol Chem 254:9627-32). […] Relative activity at each time point was determined from changes in the area under the insulin heterodimer peak following separation over RP-HPLC (Agilent 1100) using an Intrada WP-RP 50×3 (Imtakt) column. […] The flow rate was 0.2 mL/min and absorbance was measured at 280 nm. […]

Values joined by “and” are separate entries in the source; they are usually repeats but may differ in a detail not shown here. Equal values may be shown once.

On to `O[C@H](CS)[C@H](O)CS` (racemic) [DTT, dithiothreitol, reference compound], for which the results for the MCT rate in data set [1] and in data set [3] were 33.33±12.9 mm/min and 1.41±0.1 mm/min, respectively. Further, the “MCT rate of treated sputum” value in data set [2] turned out to be 2.31±0.34 mm/min. In addition, in the data set on mucins of 4% HBE mucus, the “molecular weight of mucins” value is listed as 210 MDa.
Turning to `N[C@@H](CCC(=O)N[C@@H](CS)C(=O)NCC(=O)O)C(=O)O` [GSH, glutathione], in data set [4], the pKa is 9.1.
Consider `O=S(=O)(O)CCS` [Mesna, 2-mercaptoethane sulfonate Na], for which, in data set [4], the pKa is reported as 9.2.
For the compound `CC(=O)N[C@@H](CS)C(=O)O` [NAC, N-acetyl cysteine, reference compound], the insulin reduction entry was “inactive” on human insulin (1.25 mM, pH 6 or 8, 60 min); “not at pH 6” at human insulin (12.5 mM, pH 6, 60 min); “able to reduce insulin” at human insulin (12.5 mM, pH 8, 60 min).
For `NCCS` [cysteamine], the pKa in data set [4] is 8.3 and 8.5.

Usually pKa stands for the negative logarithm of the acid dissociation constant.
